Results as given in patent US20230406911A1, “COMPOSITIONS AND METHODS FOR PREVENTING, INHIBITING, DISRUPTING, OR TREATING A POLYMICROBIAL BIOFILM” (priority 2020, published 2023).

Experiments:
[1] = tested on: established NTHI biofilms; details: antibiotic at concentrations ≥4-fold below the MIC; Brockson et al., 2014; cited from earlier work
NRel M. catarrhalis = details: Mokrzan et al., 2018; cited from earlier work
NTHI = experiment: Antibiotic sensitivity of biofilm-resident, planktonic or NRel NTHI; assay type: cell-based, Nontypeable Haemophilus influenzae strain 86-028NP; details: for sensitivity of biofilm-resident NTHI to killing: 16 h biofilm, same concentrations as for planktonic/NRel; for sensitivity of biofilm-resident NTHI to killing / killing of planktonic NTHI at the concentration chosen for the assay: 2 h antibiotic exposure; for sensitivity of anti-IHF NRel to killing, compared with planktonic NTHI / sensitivity of anti-IHF NRel to killing, compared with biofilm-resident NTHI: NRel collected after 15 min anti-IHF IgG, TMP-SMX 0.09/0.45 μg/ml, AMC 0.30/0.15 μg/ml; for sensitivity of anti-IHF NRel to killing, compared with planktonic NTHI: 2 h (FIG. 5d, 5e); for sensitivity of anti-IHF NRel to killing, compared with biofilm-resident NTHI / sensitivity of anti-rsPilA NRel to killing, compared with biofilm-resident NTHI: 2 h, P≤0.0001; for susceptibility of time-matched anti-IHF NRel to killing, compared with planktonic NTHI: NRel collected after 2 h anti-IHF IgG, TMP-SMX 0.94/4.7 μg/ml, AMC 2.5/1.25 μg/ml (FIG. 6c, 6d); for susceptibility of time-matched anti-rsPilA NRel to killing, compared with planktonic NTHI: NRel collected after 2 h anti-rsPilA IgG, TMP-SMX 0.09/0.45 μg per ml, AMC 0.3/0.15 μg per ml (FIG. 6a, 6b); for sensitivity of anti-rsPilA NRel to killing, compared with planktonic NTHI / sensitivity of anti-rsPilA NRel to killing, compared with biofilm-resident NTHI: NRel collected after 6 h anti-rsPilA IgG, TMP-SMX 0.94/4.7 μg per ml, AMC 2.5/1.25 μg per ml; for sensitivity of anti-rsPilA NRel to killing, compared with planktonic NTHI: 2 h (FIG. 5b, 5c); for killing of planktonic NTHI at the concentration chosen for the assay: mid-log planktonic NTHI density-matched to NRel
Experimental: To avoid excessive manipulation or dilution of NRel NTHI, and to permit direct comparison of equal numbers of planktonic and NRel, Applicant adjusted the planktonic cell density to the same CFU per ml as the NRel population in each experiment as follows: NTHI were incubated statically to mid log phase growth then diluted to either 3×10^8 CFU/ml for comparison with anti-rsPilA NRel collected at 6 h, or to 2×10^8 CFU/ml for comparison with anti-IHF NRel collected at 15 min (see FIG. 1). Applicant then determined the concentrations of amoxicillin (Sigma-Aldrich, St. Louis, MO) and clavulanate (U.S. Pharmacopeia, Rockville, MD), or of trimethoprim (Sigma-Aldrich) and sulfamethoxazole (Santa Cruz Biotech, Dallas, TX) that killed approximately 25% of planktonic NTHI at each density. The same antibiotic concentrations were used for the anti-IHF or anti-rsPilA NRel, the density-matched (same CFU/ml) planktonic NTHI, and the adherent biofilm for each relevant experiment. […] Applicant then assessed killing of anti-IHF or anti-rsPilA NRel by concentrations of amoxicillin plus clavulanic acid (“augmentin”, AMC) or trimethoprim plus sulfamethoxazole (TMP-SMX) that killed 25% of the planktonic NTHI at the same density.
Anti-rsPilA or anti-IHF NRel were collected and sonicated as described above. After sonication for 2 min in a water bath sonicator to break up any NTHI aggregates, NRel or planktonic NTHI were incubated with the indicated antibiotics at 37° C. for 2 h, then serially diluted and plated on chocolate agar to quantify viable NTHI. To assay biofilm-resident NTHI, biofilms were established for 16 h at 37° C. as described above, washed twice with DPBS and incubated in sBHI supplemented with the indicated antibiotics at 37° C. After 2 h, biofilm-resident NTHI were collected by forceful pipetting, sonicated for 2 min and enumerated as described above. All experiments were performed at least three times on separate days with two or three technical replicates for each treatment and control group.

NRel NTHI = details: Mokrzan et al., 2018; cited from earlier work

## CC1(C)S[C@@H]2[C@H](NC(=O)[C@H](N)c3ccccc3)C(=O)N2[C@H]1C(=O)O [ampicillin]
[1]
  sensitivity to killing of NTHI biofilms co-exposed to anti-DNABII antiserum, compared to planktonic counterparts: significantly more sensitive

## CC[C@H]1OC(=O)[C@H](C)[C@@H](O[C@H]2C[C@@](C)(OC)[C@@H](O)[C@H](C)O2)[C@H](C)[C@@H](O[C@@H]2O[C@H](C)C[C@H](N(C)C)[C@H]2O)[C@](C)(OC)C[C@@H](C)C(=O)[C@H](C)[C@@H](O)[C@]1(C)O [clarithromycin]
NRel M. catarrhalis
  susceptibility of NRel M. catarrhalis released by anti-rsPilA, compared with growth on agar: more susceptible

## amoxicillin plus clavulanic acid [AMC]
NTHI
  sensitivity of biofilm-resident NTHI to killing: minimal sensitivity
  sensitivity of anti-IHF NRel to killing, compared with planktonic NTHI: significantly more sensitive
  sensitivity of anti-IHF NRel to killing, compared with biofilm-resident NTHI: significantly more sensitive
  susceptibility of time-matched anti-IHF NRel to killing, compared with planktonic NTHI: significantly more susceptible
  susceptibility of time-matched anti-rsPilA NRel to killing, compared with planktonic NTHI: equally susceptible
  sensitivity of anti-rsPilA NRel to killing, compared with planktonic NTHI: only equally as sensitive
  sensitivity of anti-rsPilA NRel to killing, compared with biofilm-resident NTHI: significantly more sensitive
  killing of planktonic NTHI at the concentration chosen for the assay: ~25%
[1]
  sensitivity to killing of NTHI biofilms co-exposed to anti-DNABII antiserum, compared to planktonic counterparts: significantly more sensitive

## trimethoprim plus sulfamethoxazole [TMP-SMX]
NRel NTHI
  susceptibility of NRel NTHI released by anti-rsPilA, compared with growth on agar: more susceptible
NTHI
  sensitivity of biofilm-resident NTHI to killing: minimal sensitivity
  sensitivity of anti-IHF NRel to killing, compared with planktonic NTHI: only equally as sensitive
  sensitivity of anti-IHF NRel to killing, compared with biofilm-resident NTHI: significantly more sensitive
  susceptibility of time-matched anti-IHF NRel to killing, compared with planktonic NTHI: equally susceptible
  susceptibility of time-matched anti-rsPilA NRel to killing, compared with planktonic NTHI: significantly more susceptible
  sensitivity of anti-rsPilA NRel to killing, compared with planktonic NTHI: significantly greater
  sensitivity of anti-rsPilA NRel to killing, compared with biofilm-resident NTHI: significantly more sensitive
  killing of planktonic NTHI at the concentration chosen for the assay: ~25%
